One test relates to HCT-15 colon cells. The test can be described thus: Antiproliferative assay, methylene blue staining. The settings on record: Homo sapiens, read-out: IC50 antiproliferative activity. It is filed as cell-based. The text has this: The following cell lines are obtained from the American Type Culture Collection (ATCC, Rockville, Md., USA): human colon carcinomas HCT-15 (CCL 225) and HCT-116 (CCL 247), human lung adenocarcinoma A549 (CCL 185), human large cell carcinoma NCI-H460 (HTB 177), estrogen-independent breast carcinoma MDA-MB-231 ([…]), prostate cancer cell line Du 145 (HTB 81). The human KB-31 (drug-sensitive) and KB-8511 (multidrug-resistant, Pgp170 overexpressing) epidermoid carcinoma cells are obtained from Dr. R. M. Baker, Roswell Park Memorial Institute (Buffalo, N.Y., USA) and have been previously described (Akiyam S, et al. Somatic Cell Molec Genetics 1985;11:117-126 and Fojo A, et al., Cancer Res. […];45:3002-3007). The human metastatic prostate carcinoma PC-3M is obtained from Dr. I. J. Fidler (MD Anderson Cancer Center, Houston, Tex., USA). The estrogen-dependent human breast carcinoma cell line MCF-7/ADR (multidrug resistant) is a subline of the MCF-7 cell line (ATCC HTB 22) and is obtained from Dr. D. Fabbro (Novartis Pharma AG, Basel, Switzerland) and has been previously described (Blobe G C, et al. J. Biol. Chem. 1993; 268:658-664).
For the antiproliferative assays, cells are seeded at 1.5×10^3/well into 96-well microtiter plates and incubated overnight. Compounds are added in serial dilutions on day 1. The plates are than incubated for additional 5 days. This allowed the control cultures to undergo at least 3 cell divisions. After incubation the cells are fixed with 3.3% v/v glutaraldehyde, washed with water and stained with 0.05% w/v methylene blue. After washing, the dye is eluted with 3% v/v HCl and the optical density measured at 665 nm with a SpectraMax 340 (Bucherer, Basel, Switzerland). IC50 values are determined by a computerized system (SoftPro, Bucherer, Basel, Switzerland) using the formula (OD test—OD start)/(OD control—OD start)×100. IC50 is defined as the drug concentration which leads to 50% of cells per well compared to control cultures (100%) at the end of the incubation period.

The test system of the next test is 1A9PTX22 cell line. The test can be described thus: In vivo hollow fiber assay in nude mice. As to the method: (§1) PVDF hollow fibers (Spectrum, Gardena, Calif.) are soaked in 70% EtOH for 72 hours before use. After this step, all handling of fibers are done under a biological laminar flow hood using aseptic procedures. Individual fibers are flushed with 3 mL of the ice-cold tissue culture media using a syringe equipped with a 20-gauge needle. Next, each fiber is filled with an appropriate cell suspension (1×10^6 cells/mL for the 1A9 and 1A9PTX22 cells, and 0.5×10^6 cells/mL for the LS 174T cells), and both ends of the fiber are sealed with a hot flat needle holder. The entire length of the fiber is then sealed into 1.5 cm microcapsules (further called “hollow fibers”), each containing approximately 15 uL of the appropriate cell suspension. After separation, individual hollow fibers are placed in 6 well plates (6 fibers in 5 mL media per well), and are incubated overnight at 37° C. in the tissue culture incubator.
(§2) Outbred athymic (nu/nu) female mice (“Chrls:Athymic Nude-nu”, Charles River Laboratories, Wilmington, Mass.) are anesthetized with ip injections of Ketamine/Xylazine (150 mg/kg, and 12 mg/kg body weight, respectively). For the subcutaneous implantation an 11-gauge trocar containing one or two hollow fibers is inserted into an incision made with scissors at the nape of the neck of an animal, and fibers are released by retracting the trocar while depressing the plunger. This procedure is repeated until all three hollow fibers are implanted. One wound clip is used to close the skin incision After the surgery each animal receives a single, subcutaneous injection of 0.4 mg/kg butorphenol to relieve any potential pain. Animals recover from the anesthesia on a heating pad, before retuning to their cages.
(§3) One day after the implantation (3 hollow fibers/animal, each hollow fiber containing one cell line: LS 174T, 1A9, and 1A9PTX22) animals are randomly sorted into five groups of six mice/group. The first group is sacrificed; hollow fibers are retrieved, and processed according to a published procedure (Hollingshead M G, et al. Life Sciences 1995, 57(2):131-141), to determine the number of viable cells in each fiber (T0.)
(§4) On day 6 all animals are sacrificed, and hollow fibers are retrieved, and processed according to Hollingshead, M G, (supra) to determine the number of viable cells in each fiber (T—for fibers from animals treated with experimental compounds, C—for fibers from animals treated with corresponding vehicles). Antitumor activity is expressed as % Mean ΔT/Mean ΔC [comparing cell growth for treatment group to vehicle control group, where % Mean ΔT/Mean ΔC=(Mean T—Mean T0/Mean C—Mean T0)×100%]. Regressions are calculated using the formula: (1−Mean T/Mean T0)×100%. Statistical significance of the results is uniformly evaluated using a two-tailed Student's t-test.
(§5) Discodermolide is isolated from the sponge Discodermia dissoluta using the method of Gunasekera SP (supra). Multiple batches of compound of similar purity (all>95% pure, as determined by mass spectrometry, and nuclear magnetic resonance analysis) are used throughout the various studies. For the in vitro cytotoxicity assays all compounds are dissolved in DMSO and are added to the plates with cells to obtain desired concentrations. […] Paclitaxel is purchased from Sigma/Aldrich, (St. Louis, Mo.). For the in vivo hollow fiber assay, solid discodermolide is dissolved in pure ethanol to create a stock solution which is diluted just before dosing with Cremophor EL and D5W to a final concentration of 16.7% Cremophor EL, 8.3% ethanol and 75% D5W. The compound is administered to mice as a single, 15 mg/kg iv injection. Positive control animals receive clinical formulations of paclitaxel (TAXOL) diluted 4-fold with D5W (12.5% Cremophor El, 12.5% ethanol and 75% D5W final concentrations) and administered iv, at 15 mg/kg, once daily for five consecutive days. Vehicle controls are administered according to the corresponding drug schedules.

Another test has as its system LS 174T cell line. The test can be described thus: In vivo hollow fiber assay in nude mice. As to the method: as §1, §2, §3, §4, §5
Another test has as its system 1A9 cell line. Put plainly: In vivo hollow fiber assay in nude mice. The procedure:
as §1, §2, §3, §4, §5

Setting [1] is: first experiment, discodermolide single 15 mg/kg iv.
Setting [2] is: second experiment, discodermolide single 15 mg/kg iv.
Setting [3] is: first experiment, paclitaxel iv 15 mg/kg once daily for 5 days.
[4] abbreviates: second experiment, paclitaxel iv 15 mg/kg once daily for 5 days.

Like-named read-outs stand apart in the source and are kept apart here.

For orientation: IC50 means the concentration needed to halve the response being measured. On to `C=C/C=C\[C@H](C)[C@H](OC(N)=O)[C@@H](C)[C@H](O)[C@@H](C)C/C(C)=C\[C@H](C)[C@@H](O)[C@@H](C)/C=C\[C@@H](O)C[C@@H]1OC(=O)[C@H](C)[C@@H](O)[C@H]1C` [discodermolide, (+)-Discodermolide], for which the IC50 in the test with HCT-15 colon cells (HCT-15, 120 h) is about 8 nM. For the same molecule, the T/C in the test on 1A9PTX22 cell line (setting [1]) is given as −13%; in the test on 1A9PTX22 cell line (setting [2]) it was 13%; in the test on LS 174T cell line (setting [1]) it was 7%; in the test on LS 174T cell line (setting [2]) it was 13%; in the test with 1A9 cell line (setting [1]), 8%; with 1A9 cell line (setting [2]), 14%. Besides, in the test on 1A9PTX22 cell line (first study, discodermolide single 15 mg/kg iv, p<0.01), the regression was determined as 13%.

In the case of `CC(=O)O[C@H]1C(=O)[C@@]2(C)[C@H]([C@H](OC(=O)c3ccccc3)[C@]3(O)C[C@H](OC(=O)[C@H](O)[C@@H](NC(=O)c4ccccc4)c4ccccc4)C(C)=C1C3(C)C)[C@]1(OC(C)=O)CO[C@@H]1C[C@@H]2O` [paclitaxel, reference compound], the 50% inhibitory concentration (IC50) in the test on HCT-15 colon cells (120 h, HCT-15 colon cells, 5 days incubation) is about 120 nM. Moreover, the T/C with 1A9PTX22 cell line (setting [3]) was 79%; in the test with 1A9PTX22 cell line (setting [4]), 90%; in the test with LS 174T cell line (setting [3]), 3%; in the test on LS 174T cell line (setting [4]), 8%; with 1A9 cell line (setting [3]), −8%; in the test with 1A9 cell line (setting [4]), 2%.

Source of the values: patent US6774143B1, “Method for treating cells resistant to antineoplastic agents” (Novartis AG, priority 2003, dated 2004).
